Consider 28 compounds from patent US9255090B2, “Heterocyclyl derivatives and their use as prostaglandin D2 receptor modulators” (Actelion Pharmaceuticals Ltd., priority 2012, dated 2016).

The target of one assay is hCRTH2 receptor (Homo sapiens (Human), UniProt Q9Y5Y4). Briefly: hCRTH2 receptor membranes radioligand (3H-PGD2) displacement assay. The class given is binding. Particulars: 3H-PGD2 radioligand displacement, HEK293-hCRTH2 membranes. The gist of the method: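 Compound was first mixed with buffer, then 3H-PGD2 was added at 2.5 nM, and the reaction was started with hCRTH2 membranes from HEK293 cells at 20 μg/well. After 90 min at room temperature, mixtures were filtered and washed with ice-cold buffer, and retained radioactivity was counted.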
A general note: Loss of bound radioactivity is the signal in a displacement assay; it reports binding, not function.

The next assay has as its system eosinophils. Briefly: Eosinophil shape change assay with human plasma. As to conditions: human plasma (50%), PGD2 100 nM activation, antagonistic activity. The class given is cell-based. The gist of the method:
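Human polymorphonuclear cells stained with anti-CD49d-APC, combined with compound-preincubated human plasma (50% of final volume, 4×10^6 cells/ml) for 10 min at 37° C., then stimulated 5 min with 100 nM PGD2 and fixed. Flow cytometry scored percent eosinophils with increased forward scatter.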

Each structure is given as a SMILES string.

Chain of hCRTH2 receptor (Q9Y5Y4 whole entry): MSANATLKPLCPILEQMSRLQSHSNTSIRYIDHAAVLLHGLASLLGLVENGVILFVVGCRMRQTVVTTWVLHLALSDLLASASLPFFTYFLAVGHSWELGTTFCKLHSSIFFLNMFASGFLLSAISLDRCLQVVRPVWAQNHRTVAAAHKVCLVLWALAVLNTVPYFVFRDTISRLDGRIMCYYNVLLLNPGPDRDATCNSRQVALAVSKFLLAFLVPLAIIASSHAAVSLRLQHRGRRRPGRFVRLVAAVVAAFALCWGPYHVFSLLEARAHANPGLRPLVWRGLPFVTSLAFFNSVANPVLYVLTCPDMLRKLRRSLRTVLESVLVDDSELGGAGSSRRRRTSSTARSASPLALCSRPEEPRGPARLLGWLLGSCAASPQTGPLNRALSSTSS

For the compound `COc1ccc(OCC(=O)O)cc1-c1ccc(F)c2c1CN(C(=O)OCc1ccccc1)CC2` [Example 177, 8-(5-Carboxymethoxy-2-methoxy-phenyl)-5-fluoro-3,4-dihydro-1H-isoquinoline-2-carboxylic acid benzyl ester], the IC50 on hCRTH2 receptor is 21.3 nM; with eosinophils (Homo sapiens, Eosinophil) it was 539 nM.
For `CCOc1cc(CC(=O)O)ccc1-c1ccc(F)c2c1CN(C(=O)CC(C)(C)c1ccccc1)CC2` [Example 238, {3-Ethoxy-4-[5-fluoro-2-(3-methyl-3-phenyl-butyryl)-1,2,3,4-tetrahydro-isoquinolin-8-yl]-phenyl}-acetic acid], the IC50 on hCRTH2 receptor was 0.6 nM; in the assay on eosinophils (Homo sapiens, Eosinophil), 15 nM.
For `CN(C)c1ccc(CC(=O)O)cc1-c1ccc(F)c2c1CN(C(=O)OCc1ccccc1)CC2` [Example 420, 8-(5-Carboxymethyl-2-dimethylamino-phenyl)-5-fluoro-3,4-dihydro-1H-isoquinoline-2-carboxylic acid benzyl ester], in that order: 2.4 nM and 17 nM.
Turning to `CCOc1ccc(CC(=O)O)cc1-c1ccc(F)c2c1CN(C(=O)OC[C@H](C)c1ccccc1)CC2` [Example 374, 8-(5-Carboxymethyl-2-ethoxy-phenyl)-5-fluoro-3,4-dihydro-1H-isoquinoline-2-carboxylic acid (R)-2-phenyl-propyl ester], the IC50 at hCRTH2 receptor worked out at 4.2 nM; in the assay on eosinophils (Homo sapiens, Eosinophil) it was 28 nM.
Turning to `CCOc1ccc(CC(=O)O)cc1-c1ccc(F)c2c1CN(C(=O)OCc1cccc(F)c1)CC2` [Example 399, 8-(5-Carboxymethyl-2-ethoxy-phenyl)-5-fluoro-3,4-dihydro-1H-isoquinoline-2-carboxylic acid 3-fluoro-benzyl ester], the IC50 is 4.7 nM at hCRTH2 receptor and 29 nM with eosinophils (Homo sapiens, Eosinophil).
On to `CCOc1ccc(CC(=O)O)cc1-c1ccc(F)c2c1CN(C(=O)OCc1cccc(C)n1)CC2` [Example 371, 8-(5-Carboxymethyl-2-ethoxy-phenyl)-5-fluoro-3,4-dihydro-1H-isoquinoline-2-carboxylic acid 6-methyl-pyridin-2-ylmethyl ester], for which the IC50 at hCRTH2 receptor turned out to be 0.6 nM; in the assay with eosinophils (Homo sapiens, Eosinophil), 23 nM.
Taken in the same sequence, the figures for `COc1ccc(CC(=O)O)cc1-c1ccc(F)c2c1CN(C(=O)[C@@H]1C[C@H]1c1ccc(F)cc1)CC2` (racemic) [Example 1, (±)-(3-{5-Fluoro-2-[trans-2-(4-fluoro-phenyl)-cyclopropanecarbonyl]-1,2,3,4-tetrahydro-isoquinolin-8-yl}-4-methoxy-phenyl)-acetic acid] were 1.99 nM and 8 nM.
For `CCOc1ccc(CC(=O)O)cc1-c1ccc(F)c2c1CN(C(=O)CC(C)c1ccc(F)cc1)CC2` (centres unmarked) [Example 211, (4-Ethoxy-3-{5-fluoro-2-[3-(4-fluoro-phenyl)-butyryl]-1,2,3,4-tetrahydro-isoquinolin-8-yl}-phenyl)-acetic acid], in that order: 2.6 nM and 7 nM.
Taken in the same sequence, the figures for `COc1ccc(CC(=O)O)cc1-c1ccc(Cl)c2c1CN(C(=O)[C@@H]1C[C@H]1c1cccc(F)c1)CC2` [Example 69, (3-{5-Chloro-2-[(1R,2R)-2-(3-fluoro-phenyl)-cyclopropanecarbonyl]-1,2,3,4-tetrahydro-isoquinolin-8-yl}-4-methoxy-phenyl)-acetic acid] were 9.58 nM and 78 nM.
Consider `CCOc1ccc(CC(=O)O)cc1-c1ccc(F)c2c1CN(C(=O)CC1(c3ccc(F)cc3)CC1)CC2` [Example 277, [4-Ethoxy-3-(5-fluoro-2-{2-[1-(4-fluoro-phenyl)-cyclopropyl]-acetyl}-1,2,3,4-tetrahydro-isoquinolin-8-yl)-phenyl]-acetic acid], for which the IC50 at hCRTH2 receptor was found to be 1.9 nM; in the assay with eosinophils (Homo sapiens, Eosinophil), 21 nM.
Taken in the same sequence, the figures for `COc1ccc(CC(=O)O)cc1-c1ccc(F)c2c1CN(C(=O)[C@@H]1C[C@H]1c1ccccc1F)CC2` (racemic) [Example 5, (±)-(3-{5-Fluoro-2-[trans-2-(2-fluoro-phenyl)-cyclopropanecarbonyl]-1,2,3,4-tetrahydro-isoquinolin-8-yl}-4-methoxy-phenyl)-acetic acid] were 3.64 nM and 12 nM.
For `COCCOc1ccc(CC(=O)O)cc1-c1ccc(F)c2c1CN(C(=O)OCc1ccccc1)CC2` [Example 199, 8-[5-Carboxymethyl-2-(2-methoxy-ethoxy)-phenyl]-5-fluoro-3,4-dihydro-1H-isoquinoline-2-carboxylic acid benzyl ester], in that order: 0.49 nM and 19 nM.
Taken in the same sequence, the figures for `COc1ccc(CC(=O)O)cc1-c1ccc(F)c2c1CN(C(=O)CC1COCc3ccccc31)CC2` (racemic) [Example 271] were 22.3 nM and 91 nM.
Turning to `COc1ccc(CC(=O)O)cc1-c1ccc(C#N)c2c1CN(C(=O)OCc1ccccc1)CC2` [Example 169, 8-(5-Carboxymethyl-2-methoxy-phenyl)-5-cyano-3,4-dihydro-1H-isoquinoline-2-carboxylic acid benzyl ester], the IC50 amounted to 9.17 nM at hCRTH2 receptor and 146 nM in the assay with eosinophils (Homo sapiens, Eosinophil).
`CCOc1ccc(CC(=O)O)cc1-c1ccc(F)c2c1CN(C(=O)CC(C)c1ccccn1)CC2` (centres unmarked) [Example 203, {4-Ethoxy-3-[5-fluoro-2-(3-pyridin-2-yl-butyryl)-1,2,3,4-tetrahydro-isoquinolin-8-yl]-phenyl}-acetic acid]: the IC50 on hCRTH2 receptor is 2.9 nM; in the assay on eosinophils it was 12 nM.
Consider `CCOc1cc(CC(=O)O)ccc1-c1ccc(F)c2c1CN(C(=O)OCc1ccc(F)cc1F)CC2` [Example 409, 8-(4-Carboxymethyl-2-ethoxy-phenyl)-5-fluoro-3,4-dihydro-1H-isoquinoline-2-carboxylic acid 2,4-difluoro-benzyl ester], for which the IC50 on hCRTH2 receptor was found to be 3.9 nM; in the assay on eosinophils (Homo sapiens, Eosinophil), 5 nM.
Taken in the same sequence, the figures for `CCOc1ccc(CC(=O)O)cc1-c1ccc(F)c2c1CN(C(=O)OCc1ccc(F)cc1F)CC2` [Example 403, 8-(5-Carboxymethyl-2-ethoxy-phenyl)-5-fluoro-3,4-dihydro-1H-isoquinoline-2-carboxylic acid 2,4-difluoro-benzyl ester] were 1.7 nM and 15 nM.
With `CCOc1ccc(CC(=O)O)cc1-c1ccc(F)c2c1CN(C(=O)CC(C)c1cccc(F)c1)CC2` (racemic) [Example 279], the IC50 on hCRTH2 receptor is 6.9 nM; with eosinophils (Homo sapiens, Eosinophil) it was 45 nM.
Taken in the same sequence, the figures for `COc1ccc(CC(=O)O)cc1-c1c(F)cc(F)c2c1CN(C(=O)OCc1ccccc1)CC2` [Example 39, 8-(5-Carboxymethyl-2-methoxy-phenyl)-5,7-difluoro-3,4-dihydro-1H-isoquinoline-2-carboxylic acid benzyl ester] were 5.89 nM and 404 nM.
For `O=C(O)Cc1ccc(-c2ccc(F)c3c2CN(C(=O)OCc2ccccc2)CC3)c(OCC(F)(F)F)c1` [Example 411, 8-[4-Carboxymethyl-2-(2,2,2-trifluoro-ethoxy)-phenyl]-5-fluoro-3,4-dihydro-1H-isoquinoline-2-carboxylic acid benzyl ester], in that order: 1 nM and 13 nM.
Turning to `CCOc1ccc(CC(=O)O)cc1-c1ccc(F)c2c1CN(C(=O)OCCC(C)C)CC2` [Example 370, 8-(5-Carboxymethyl-2-ethoxy-phenyl)-5-fluoro-3,4-dihydro-1H-isoquinoline-2-carboxylic acid 3-methyl-butyl ester], the IC50 at hCRTH2 receptor was 7 nM; in the assay with eosinophils (Homo sapiens, Eosinophil), 76 nM.
Turning to `CCOc1ccc(CC(=O)O)cc1-c1ccc(F)c2c1CN(C(=O)OCC1CC1)CC2` [Example 372, 8-(5-Carboxymethyl-2-ethoxy-phenyl)-5-fluoro-3,4-dihydro-1H-isoquinoline-2-carboxylic acid cyclopropylmethyl ester], the half-maximal inhibitory concentration (IC50) on hCRTH2 receptor worked out at 5.5 nM; with eosinophils (Homo sapiens, Eosinophil), 149 nM.
Regarding `COc1ccc(CC(=O)O)cc1-c1ccc(F)c2c1CN(C(=O)CC1CCc3ccccc31)CC2` (racemic) [Example 261], the IC50 on hCRTH2 receptor was 3.1 nM; in the assay on eosinophils (Homo sapiens, Eosinophil), 86 nM.
On to `COc1ccc(CC(=O)O)cc1-c1ccc(F)c2c1CN(C(=O)OCc1ccc(F)cc1)CC2` [Example 139, 8-(5-Carboxymethyl-2-methoxy-phenyl)-5-fluoro-3,4-dihydro-1H-isoquinoline-2-carboxylic acid 4-fluoro-benzyl ester], for which the IC50 at hCRTH2 receptor was 2.53 nM; in the assay on eosinophils (Homo sapiens, Eosinophil) it was 97 nM.
For `CCOc1ccc(CC(=O)O)cc1-c1ccc(F)c2c1CN(C(=O)OCCc1ccccc1)CC2` [Example 373, 8-(5-Carboxymethyl-2-ethoxy-phenyl)-5-fluoro-3,4-dihydro-1H-isoquinoline-2-carboxylic acid phenethyl ester], in that order: 1.7 nM and 42 nM.
`CCOc1ccc(CC(=O)O)cc1-c1ccc(F)c2c1CN(C(=O)CC(C)c1ccccn1)CC2` (centres unmarked) [Example 204, {4-Ethoxy-3-[5-fluoro-2-(3-pyridin-2-yl-butyryl)-1,2,3,4-tetrahydro-isoquinolin-8-yl]-phenyl}-acetic acid]: the figures for the IC50 at hCRTH2 receptor and with eosinophils were 2.9 nM and 30 nM, respectively.
Consider `CCOc1cc(CC(=O)O)ccc1-c1ccc(F)c2c1CN(C(=O)OCc1cccc(F)c1)CC2` [Example 405, 8-(4-Carboxymethyl-2-ethoxy-phenyl)-5-fluoro-3,4-dihydro-1H-isoquinoline-2-carboxylic acid 3-fluoro-benzyl ester], for which the IC50 on hCRTH2 receptor worked out at 2.7 nM; with eosinophils (Homo sapiens, Eosinophil), 20 nM.
Taken in the same sequence, the figures for `COc1ccc(CC(=O)O)cc1-c1ccc(F)c2c1CN(C(=O)CCn1nc(C)c3ccccc31)CC2` [Example 125, (3-{5-Fluoro-2-[3-(3-methyl-indazol-1-yl)-propionyl]-1,2,3,4-tetrahydro-isoquinolin-8-yl}-4-methoxy-phenyl)-acetic acid] were 16.3 nM and 113 nM.

For orientation: IC50 means the concentration at which inhibition is half-maximal.
